Experimental data taken from patent US10034886B2, “GLP-1 receptor modulators” (Celgene International II SÀRL, priority 2014, dated 2018).
pEC50: −log10 of the molar value.

Biological target: T1, GLP-1R (Homo sapiens, UniProt P43220)
T1 construct: host or cells: GLP-1R CRE-bla CHO-K1 cells
Test: EC20 GLP-1(9-36) PAM cAMP assay: dose response of compound in the presence of fixed concentration of GLP-1(9-36)
Type: cell-based
Settings: GLP-1R CRE-bla CHO-K1 cells, compound dose response with fixed concentration of GLP-1(9-36), read-out: EC20 GLP-1(9-36) PAM EC50
Outline: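 Positive allosteric modulation read as cAMP accumulation: compound titrations (12 points) combined with an EC20 level of GLP-1(9-36) on CHO-K1 GLP-1R CRE-bla cells, IBMX present, 30 min, 37 °C, pH 7.4 buffer. Luminescence converted to cAMP via standards; non-linear fit gave EC50 and Emax.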

T1 sequence (P43220 24-463): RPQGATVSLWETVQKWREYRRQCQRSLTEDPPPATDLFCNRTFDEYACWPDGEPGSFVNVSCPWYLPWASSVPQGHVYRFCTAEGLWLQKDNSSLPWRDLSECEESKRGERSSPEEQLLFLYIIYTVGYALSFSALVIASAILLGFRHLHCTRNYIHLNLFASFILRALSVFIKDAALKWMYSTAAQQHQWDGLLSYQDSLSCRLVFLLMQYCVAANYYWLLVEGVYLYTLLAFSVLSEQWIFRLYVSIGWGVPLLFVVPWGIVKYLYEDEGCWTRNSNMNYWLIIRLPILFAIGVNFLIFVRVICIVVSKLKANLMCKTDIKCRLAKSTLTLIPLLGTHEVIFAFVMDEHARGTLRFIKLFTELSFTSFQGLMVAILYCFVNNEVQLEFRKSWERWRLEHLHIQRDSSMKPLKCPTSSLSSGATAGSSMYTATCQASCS
T1 sequence (P01275 100-127 partner limits assumed): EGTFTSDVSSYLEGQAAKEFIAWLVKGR

Row | Compound | pEC50
1 | CCC[C@H]1CC[C@H](N2CCN(c3cnc(-c4ccc(C[C@H](NC(=O)c5ccc(C(C)(C)C)s5)C(=O)N5CC(C(=O)O)C5)cc4)nc3)CC2)CC1 [Compound 1435] | 5.60 to 6.10
2 | CC(C)(C)c1ccc(C(=O)NC(Cc2ccc(-c3ncc(N4CCC(c5ccc(Br)cc5)CC4)cn3)cc2)C(=O)N2CC(C(=O)O)C2)s1 (stereo not shown) [Compound 1487] | 5.60 to 6.10
3 | CCC(CC)Oc1ccc(-c2ccc(-c3cnc(-c4ccc(C[C@H](NC(=O)c5ccc(C(C)(C)C)s5)C(=O)N[C@H](C)C(=O)O)cc4)nc3)cc2)cc1 [Compound 1298] | > 6.10
4 | CC(C)(C)c1ccc(C(=O)N[C@@H](Cc2ccc(-c3ncc(-c4ccc(-c5ccc(C(F)(F)F)cc5F)cc4F)cn3)cc2)C(=O)N2CC(C(=O)O)C2)s1 [Compound 1222] | > 6.10
5 | CCCCc1ccc(C2CCCN(c3cnc(-c4ccc(C[C@H](NC(=O)c5ccc(C(C)(C)C)s5)C(=O)N5CC(C(=O)O)C5)cc4)nc3)CC2)cc1 (stereo partly shown) [Compound 1508] | > 6.10
6 | CC[C@H]1CC[C@H](c2ccc(-c3cnc(-c4ccc(C[C@H](NC(=O)c5ccc(CC(C)C)cc5)C(=O)O)cc4)nc3)cc2)CC1 [Compound 1383] | 5.60 to 6.10
7 | CC(C)c1ccc(-c2ccc(-c3cnc(-c4ccc(C[C@H](NC(=O)c5ccc(C(C)(C)C)s5)C(=O)N5CC(C(=O)O)C5)cc4)nc3)cc2)cc1 [Compound 1395] | > 6.10

The remaining lines, values ahead:

Row | pEC50 | Compound
8 | 5.30 to 5.60 | COc1cccc(/C=C/c2cnc(-c3ccc(C[C@H](NC(=O)c4ccc(C(C)(C)C)s4)C(=O)N[C@H](C)C(=O)O)cc3)nc2)c1 [Compound 1263]
9 | > 6.10 | CCC[C@H]1CC[C@H](C2CCN(c3cnc(-c4ccc(CC(NC(=O)c5ccc(C(C)(C)C)s5)C(=O)NS(=O)(=O)C(C)C)cc4)nc3)CC2)CC1 (stereo partly shown) [Compound 1545]

Same assay, conditions: dose response of compound in presence of fixed concentration of GLP-1(9-36), GLP-1R CRE-bla CHO-K1 cells, read-out: EC20 GLP-1(9-36) PAM EC50

Row | Compound | pEC50
10 | CCCCCCCOc1ccc(-c2cnc(-c3ccc(C[C@H](NC(=O)c4ccc(C(C)(C)C)cc4)C(=O)N[C@@H](CC(=O)NCCO)C(=O)O)cc3)nc2)cc1 [Compound 508] | > 6.10
11 | CC(C)(C)c1ccc(C(=O)N[C@@H](Cc2ccc(-c3ncc(-c4ccc(-c5ccccc5Cl)cc4F)cn3)cc2)C(=O)N2CC(C(=O)O)C2)s1 [Compound 1195] | > 6.10
12 | CCCCCCCOc1ccc(-c2cnc(-c3ccc(C[C@H](NC(=O)c4oc(C(C)(C)C)cc4C)C(=O)N4CC(C(=O)O)C4)cc3)nc2)cc1 [Compound 1101] | 5.60 to 6.10
13 | CCCCCCCOc1ccc(-c2cnc(-c3ccc(C[C@H](NC(=O)c4ccc(C5CC5)cc4)C(=O)N4CC[C@H](C(=O)O)C4)cc3)nc2)cc1 [Compound 857] | 5.00 to 5.30
14 | C[C@@H](NC(=O)[C@H](Cc1ccc(-c2ncc(-c3ccc([C@H]4CC[C@@H](C(C)(C)C)CC4)cc3)cn2)cc1)NC(=O)c1ccc(C(C)(C)C)s1)C(=O)O [Compound 1144] | 5.60 to 6.10
15 | CCCCCCCOc1ccc(-c2cnc(-c3ccc(C[C@H](NC(=O)c4ccc(C(C)(C)C)s4)C(=O)N[C@@H](CC(=O)NC)C(=O)O)cc3)nc2)cc1 [Compound 512] | > 6.10
16 | CCCC(C)COc1ccc(-c2cnc(-c3ccc(C[C@H](NC(=O)c4ccc(C(C)(C)C)cc4)C(=O)NCCC(=O)O)cc3)nc2)cc1 (stereo partly shown) [Compound 707] | 5.00 to 5.30
17 | CCCCCCCOc1ccc(-c2cnc(-c3ccc(C[C@H](NC(=O)c4ccc(C(C)(C)C)s4)C(=O)NC(C(=O)O)C(O)c4cncnc4)cc3)nc2)cc1 (stereo partly shown) [Compound 904] | 5.30 to 5.60
18 | CCCCCCCOc1ccc(-c2cnc(-c3ccc(C[C@H](NC(=O)c4ccc(C(C)(C)C)s4)C(=O)N[C@@H](CCN)C(=O)O)cc3)nc2)cc1 [Compound 410, (S)-4-amino-2-((S)-2-(5-(tert-butyl)thiophene-2-carboxamido)-3-(4-(5-(4-(heptyloxy)phenyl)pyrimidin-2-yl)phenyl)propanamido)butanoic acid] | 5.60 to 6.10
19 | CCCCCCCOc1ccc(-c2cnc(-c3ccc(C[C@H](NC(=O)c4ccc(C(C)(C)C)s4)C(=O)NC(C(=O)O)c4c(C)n[nH]c4C)cc3)nc2)cc1 (stereo partly shown) [Compound 598] | > 6.10
20 | CC(C)(C)c1ccc(C(=O)N[C@@H](Cc2ccc(-c3ncc(-c4ccc([C@H]5CC[C@H](C(C)(C)C)CC5)cc4)cn3)cc2)C(=O)N2CC(C(=O)O)C2)s1 [Compound 1181] | 5.60 to 6.10
21 | CCCCCCCOc1ccc(-c2cnc(-c3ccc(C[C@H](NC(=O)c4ccc(CC)cc4)C(=O)N4CC[C@H](C(=O)O)C4)cc3)nc2)cc1 [Compound 855] | 5.60 to 6.10
22 | CCCCCCCOc1ccc(-c2cnc(-c3ccc(C[C@H](NC(=O)c4ccc(C(C)(C)C)s4)C(=O)N[C@@H](CC(=O)O)C(=O)NCCOC)cc3)nc2)cc1 [Compound 532] | > 6.10
23 | CCCCCCCOc1ccc(-c2cnc(-c3ccc(C[C@H](NC(=O)c4ccc(C(C)(C)C)cc4)C(=O)NC(C(=O)O)C4CCOCC4)cc3)nc2)cc1 (stereo partly shown) [Compound 540] | > 6.10
24 | CCCCCCc1nnc(-c2cnc(-c3ccc(C[C@H](NC(=O)c4ccc(C(C)(C)C)cc4)C(=O)O)cc3)nc2)s1 [Compound 397, (S)-2-(4-(tert-butyl)benzamido)-3-(4-(5-(5-hexyl-1,3,4-thiadiazol-2-yl)pyrimidin-2-yl)phenyl)propanoic acid] | 5.30 to 5.60
25 | CCCCCCCOc1ccc(-c2cnc(-c3ccc(C[C@H](NC(=O)c4ccc(C(C)(C)C)cc4)C(=O)N[C@H](CO)C(=O)O)cc3)nc2)cc1 [Compound 417] | > 6.10
26 | COCCCCCOc1ccc(-c2cnc(-c3ccc(C[C@H](NC(=O)c4ccc(C(C)(C)C)cc4)C(=O)NCCC(=O)O)cc3)nc2)cc1 [Compound 471] | 5.00 to 5.30
27 | CC(C)Oc1ccc(-c2cnc(-c3ccc(C[C@H](NC(=O)c4ccc(C(C)(C)C)s4)C(=O)NC(C(=O)O)C(O)c4ccccc4)cc3)nc2)cc1 (stereo partly shown) [Compound 931] | 5.30 to 5.60
28 | CCCCCCCOc1ccc(-c2cnc(-c3ccc(C[C@H](NC(=O)c4ccc(CCC)s4)C(=O)N4CC(C(=O)O)C4)cc3)nc2)cc1 [Compound 1107] | 5.60 to 6.10
29 | CC(C)(C)c1ccc(C(=O)N[C@@H](Cc2ccc(-c3ncc(-c4ccc(C5CCCC5)cc4)cn3)cc2)C(=O)N2CCC[C@H]2C(=O)O)s1 [Compound 1123] | 5.60 to 6.10
30 | CC[C@H]1CC[C@H](c2ccc(N3CCN(c4ccc(C[C@H](NC(=O)c5ccc(C(C)(C)C)s5)C(=O)O)cc4)CC3)cc2)CC1 [Compound 1059, (S)-2-(5-(tert-butyl)thiophene-2-carboxamido)-3-(4-(4-(4-((1r,4r)-4-ethylcyclohexyl)phenyl)piperazin-1-yl)phenyl)propanoic acid] | 5.00 to 5.30

The next lines start with the values.

Row | pEC50 | Compound
31 | 5.30 to 5.60 | CCCCCCCOc1ccc2cc(-c3ccc(C[C@H](NC(=O)c4ccc(C(C)(C)C)cc4)C(=O)N[C@H](C)C(=O)O)cc3)ncc2c1 [Compound 808]
32 | > 6.10 | Cc1cc(-c2cnc(-c3ccc(C[C@H](NC(=O)c4ccc(C(C)(C)C)s4)C(=O)N4CC(C(=O)O)C4)cc3)nc2)ccc1OC(C)C [Compound 1093]
33 | > 6.10 | CC(C)(C)c1ccc(C(=O)N[C@@H](Cc2ccc(-c3ncc(-c4ccc(-c5cccc(Cl)c5)cc4F)cn3)cc2)C(=O)N2CC(C(=O)O)C2)s1 [Compound 1192]
34 | 5.00 to 5.30 | CCCCCCCOc1ccc(-c2cnc(-c3ccc(C[C@H](NC(=O)c4ccc(C(C)(C)C)s4)C(=O)NC(C(=O)O)C(O)C(C)(C)C)cc3)nc2)cc1 (stereo partly shown) [Compound 918]
35 | 5.60 to 6.10 | CCCCCCCOc1ccc(-c2cnc(-c3ccc(C[C@H](NC(=O)c4ccc(C(C)(C)C)s4)C(=O)N[C@@H](C(=O)O)C(C)C)cc3)nc2)cc1 [Compound 889]
36 | 5.30 to 5.60 | CCOc1ccc2cc(-c3cnc(-c4ccc(C[C@H](NC(=O)c5ccc(C(C)(C)C)s5)C(=O)N[C@H](C)C(=O)O)cc4)nc3)ccc2c1 [Compound 992]
37 | 5.30 to 5.60 | CCCCCCCOc1ccc(-c2cnc(-c3ccc(C[C@H](NC(=O)c4ccc(OCCC)cc4)C(=O)N4CC(C(=O)O)C4)cc3)nc2)cc1 [Compound 1105]
38 | 5.00 to 5.30 | CC(C)(C)c1ccc(C(=O)N[C@@H](Cc2ccc(-c3ncc(-c4ccc(OCC5CCCC5)cc4)cn3)cc2)C(=O)N2CC(C(=O)O)C2)s1 [Compound 922]
39 | 5.30 to 5.60 | CCCCCCCOc1ccc(-c2cnc(-c3ccc(C[C@H](NC(=O)c4ccc(C(C)(C)C)cc4)C(=O)N[C@@H](CC4CCCNC4)C(=O)O)cc3)nc2)cc1 (stereo partly shown) [Compound 577]
40 | 5.00 to 5.30 | CCCCCCCc1noc(-c2cnc(-c3ccc(C[C@H](NC(=O)c4ccc(C(C)(C)C)cc4)C(=O)NCCC(=O)O)cc3)nc2)n1 [Compound 754]
41 | 5.60 to 6.10 | CCCCCCCOc1ccc(-c2cnc(-c3ccc(C[C@H](NC(=O)c4ccc(C(C)(C)C)s4)C(=O)NC(C(=O)O)C(O)C(F)(F)F)cc3)nc2)cc1 (stereo partly shown) [Compound 882]
42 | > 6.10 | CCCCCCCOc1ccc(-c2cnc(-c3ccc(C[C@H](NC(=O)c4ccc(C(C)(C)C)s4)C(=O)N[C@@H](Cc4cn(C)cn4)C(=O)O)cc3)nc2)cc1 [Compound 593]
43 | > 6.10 | CCCCCCCOc1ccc(-c2cnc(-c3ccc(C[C@H](NC(=O)c4ccc(C(C)(C)C)s4)C(=O)N[C@@H](CC(=O)N[C@@H](CO)C(=O)O)C(=O)O)cc3)nc2)cc1 [Compound 517]
44 | 5.60 to 6.10 | CCCCCCCOc1ccc(-c2cnc(-c3ccc(C[C@H](NC(=O)c4ccc(C(C)(C)C)s4)C(=O)N[C@@H](C(=O)O)[C@H](O)c4ccccc4)cc3)nc2)cc1 [Compound 666, (2R,3R)-2-((S)-2-(5-(tert-butyl)thiophene-2-carboxamido)-3-(4-(5-(4-(heptyloxy)phenyl)-pyrimidin-2-yl)phenyl)propanamido)-3-hydroxy-3-phenylpropanoic acid]
45 | > 6.10 | CC[C@H]1CC[C@H](c2ccc(-c3cnc(-c4ccc(C[C@H](NC(=O)c5ccc(C(C)(C)C)s5)C(=O)N5CCC[C@H]5C(=O)O)cc4)nc3)cc2)CC1 [Compound 1128, ((S)-2-(5-(tert-butyl)thiophene-2-carboxamido)-3-(4-(5-(4-((1r,4r)-4-ethylcyclohexyl)phenyl)pyrimidin-2-yl)phenyl)propanoyl)-L-proline]
46 | 5.00 to 5.30 | CC(C)(C)c1ccc(C(=O)N[C@@H](Cc2ccc(-c3ncc(-c4ccc(OC5CCCCC5)cc4)cn3)cc2)C(=O)N2CC(C(=O)O)C2)s1 [Compound 921]
